The source made the active and inactive calls.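 How the source made its calls: active means compounds cutting HIV-1 replication by at least half at any tested dose; inactive means the rest.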
What follows are compounds tested on MAGI-CCR5 cells, HIV-1 BaL, beta-gal luminescence, 48 h (assay: R5 HIV-1 replication inhibitors in MAGI cells, MAGI-CCR5 cells, beta-gal luminescence, 2% serum, set 3 (AID 504352)).
`Cc1c2c(=O)n(-c3nc4ccccc4s3)nc-2cc(O)n1C1CC1` gave an IC50 of 0.56 µM.
For `Cc1ccc(-n2cccc2/C=C2/C(=N)N3C(=NC2=O)SN=C3S(C)(=O)=O)cc1C`, the IC50 was 36.1 µM.
`COc1ccc(CCn2c(O)cc3nn(-c4nc5ccccc5s4)c(=O)c-3c2C)cc1` was tested, and the IC50 was 13.4 µM.
For `CCOc1ccc(-n2cccc2/C=C2/C(=N)N3C(=NC2=O)SN=C3S(C)(=O)=O)cc1`, the IC50 was 24.3 µM.
For `CCOC(=O)C1=C(C)N=c2sc(=Cc3ccc(OCC(=O)O)cc3)c(=O)n2C1c1cc(OC)c(OC)c(OC)c1` (stereo not drawn), the IC50 was > 100 µM (inactive).
For `CCc1ccc(-c2ccc(/C=C3\SC(=S)N(CCCC(=O)O)C3=O)o2)cc1`, the IC50 was 3.43 µM.
Compound `CCOC(=O)C1=C(C)N=c2s/c(=C\c3ccc(OCC(=O)O)cc3)c(=O)n2C1c1ccc(Cl)cc1` (stereo not drawn) has an IC50 of 38.1 µM.
`Nc1sc2ccccc2[n+]1Cc1ccc(C(=O)O)cc1` was tested, and the IC50 was > 100 µM (inactive).
Work on `CCOC(=O)C1=C(C)N=c2sc(=Cc3ccc(OCC(=O)O)cc3)c(=O)n2C1c1ccccc1OC` (stereo not drawn) yielded an IC50 of 45.1 µM.
`COc1ccccc1Cn1c(O)cc2nn(-c3nc4ccccc4s3)c(=O)c-2c1C` was tested, and the IC50 was 1.9 µM.
In the case of `CCOC(=O)C1=C(C)N=c2s/c(=C\c3ccc(OCC(=O)O)cc3)c(=O)n2C1c1ccc(OC)c(OCC)c1` (stereo not drawn), the IC50 is reported as 33.6 µM.
Work on `Cc1c2c(=O)n(-c3nc4ccccc4s3)nc-2cc(O)n1CCC(C)C` yielded an IC50 of 2.16 µM.
Compound `O=C(O)CCCN1C(=O)/C(=C\c2ccc(-c3ccc(Cl)cc3)o2)SC1=S` has an IC50 of 2.88 µM.
With `O=C(O)c1ccc(C[n+]2c(-c3ccc([N+](=O)[O-])cc3)csc2Nc2ccccc2)cc1` the IC50 was 15 µM.
Compound `O=C(O)CCCN1C(=O)/C(=C/c2ccc(-c3cccc(C(F)(F)F)c3)o2)SC1=S` has an IC50 of 32.4 µM.
`O=C(O)CCCN1C(=O)/C(=C/c2ccc(-c3ccc(Cl)c(Cl)c3)o2)SC1=S` showed an IC50 of 27.4 µM.
Work on `Cc1c2c(=O)n(-c3nc4ccccc4s3)nc-2cc(O)n1Cc1cccs1` yielded an IC50 of 2.27 µM.
`O=C(O)c1ccc([C@@H]2Nc3ccc(S(=O)(=O)Nc4cccc5ccccc45)cc3[C@@H]3C=CC[C@@H]32)cc1` was tested, and the IC50 was 3.71 µM.
`O=C(O)CCCN1C(=O)/C(=C/c2cc3ccccc3o2)SC1=S` gave an IC50 of 7.55 µM.
Work on `COc1cccc(C2C(C(=O)Nc3ccccc3)=C(C)N=c3sc(=Cc4ccc(OCC(=O)O)cc4)c(=O)n32)c1` (stereo not drawn) yielded an IC50 of 55.4 µM.
`O=C(O)c1ccc(C2Nc3ccc(S(=O)(=O)Nc4cc(Cl)ccc4Cl)cc3C3C=CCC32)cc1` (stereo not drawn) showed an IC50 of 1.68 µM.
With `CC1=C(C(=O)OC(C)C)C(c2ccc(Cl)cc2)n2c(s/c(=C\c3ccc(OCC(=O)O)cc3)c2=O)=N1` (stereo not drawn) the IC50 was > 100 µM (inactive).
`O=C(O)CCC(C(=O)O)N1C(=O)/C(=C\c2ccco2)SC1=S` (stereo not drawn) was tested, and the IC50 was > 100 µM (inactive).
`Cc1c2c(=O)n(-c3nc4ccccc4s3)nc-2cc(O)n1Cc1ccc(F)cc1` was tested, and the IC50 was 3.89 µM.
In the case of `COc1ccc(-c2ccc(/C=C3\SC(=S)N(CCCC(=O)O)C3=O)o2)cc1`, the IC50 is reported as 56.5 µM.
Compound `CS(=O)(=O)C1=NSC2=NC(=O)/C(=C\c3cccn3-c3cccc(Cl)c3)C(=N)N21` has an IC50 of 52.1 µM.
With `CS(=O)(=O)C1=NSC2=NC(=O)/C(=C\c3cccn3-c3cccc(F)c3)C(=N)N21` the IC50 was 38.9 µM.
`CS(=O)(=O)C1=NSC2=NC(=O)/C(=C\c3cccn3-c3ccc(Br)cc3)C(=N)N21` gave an IC50 of 43.5 µM.
Compound `Cc1c2c(=O)n(-c3nc4ccccc4s3)nc-2cc(O)n1Cc1cccnc1` has an IC50 of 1.95 µM.
Compound `CCOC(=O)C1=C(c2ccccc2)N=c2s/c(=C\c3ccc(OCC(=O)O)cc3)c(=O)n2C1c1cccc(OC)c1` (stereo not drawn) has an IC50 of 6.6 µM.
For `CS(=O)(=O)C1=NSC2=NC(=O)/C(=C\c3cccn3-c3cccc(C(F)(F)F)c3)C(=N)N21`, the IC50 was 47.3 µM.
In the case of `CCc1ccc(-n2cccc2/C=C2/C(=N)N3C(=NC2=O)SN=C3S(C)(=O)=O)cc1`, the IC50 is reported as 36.2 µM.
`CCOC(=O)C1=C(C)N=c2sc(=Cc3ccc(OCC(=O)O)cc3)c(=O)n2C1c1ccc(F)cc1` (stereo not drawn) gave an IC50 of 36.1 µM.
In the case of `Cc1c2c(=O)n(-c3nc4ccccc4s3)nc-2cc(O)n1Cc1ccccc1Cl`, the IC50 is reported as 3.68 µM.
`Cc1c2c(=O)n(-c3nc4ccccc4s3)nc-2cc(O)n1CCc1cccs1` showed an IC50 of 3.98 µM.
`CCOC(=O)C1=C(C)N=c2sc(=Cc3ccc(OCC(=O)O)cc3)c(=O)n2C1c1ccc(OC)cc1OC` (stereo not drawn) gave an IC50 of 44.7 µM.
Compound `COc1ccc(Cn2c(O)cc3nn(-c4nc5ccccc5s4)c(=O)c-3c2C)cc1` has an IC50 of 4.1 µM.
`O=C(O)c1ccc(C[n+]2c(-c3ccccc3)csc2Nc2ccccc2)cc1` showed an IC50 of 49.5 µM.
`CS(=O)(=O)C1=NSC2=NC(=O)/C(=C\c3cccn3-c3ccc(F)cc3)C(=N)N21` gave an IC50 of 35.1 µM.
Work on `CS(=O)(=O)C1=NSC2=NC(=O)/C(=C\c3cccn3-c3cc(Cl)cc(Cl)c3)C(=N)N21` yielded an IC50 of 33.7 µM.
`CCOC(=O)C1=C(C)N=c2sc(=Cc3ccc(OCC(=O)O)cc3)c(=O)n2C1c1ccccc1` (stereo not drawn) gave an IC50 of 43.6 µM.
For `COc1ccc(-n2cccc2/C=C2/C(=N)N3C(=NC2=O)SN=C3S(C)(=O)=O)cc1Cl`, the IC50 was 32.1 µM.
Compound `CS(=O)(=O)C1=NSC2=NC(=O)/C(=C\c3cccn3-c3ccc(Cl)cc3)C(=N)N21` has an IC50 of 41.7 µM.
`O=C(O)CCCN1C(=O)/C(=C\c2ccc(-c3cccc(Cl)c3)o2)SC1=S` gave an IC50 of 15.2 µM.
Work on `COc1cccc(-n2cccc2/C=C2/C(=N)N3C(=NC2=O)SN=C3S(C)(=O)=O)c1` yielded an IC50 of 37 µM.
`O=C(O)CCCN1C(=O)/C(=C\c2ccc(-c3ccc(F)cc3)o2)SC1=S` showed an IC50 of 37 µM.
In the case of `COc1ccccc1NS(=O)(=O)c1ccc2c(c1)C1C=CCC1C(c1ccc(C(=O)O)cc1)N2` (stereo not drawn), the IC50 is reported as 2.87 µM.
In the case of `O=C(O)CCCN1C(=O)/C(=C\c2ccc(-c3ccc(Br)cc3)o2)SC1=S`, the IC50 is reported as > 100 µM (inactive).
Compound `Cc1c2c(=O)n(-c3nc4ccccc4s3)nc-2cc(O)n1CCc1ccc(O)cc1` has an IC50 of 2.83 µM.
`Cc1ccc(-c2ccc(/C=C3\SC(=S)N(CCCC(=O)O)C3=O)o2)cc1` gave an IC50 of 10.9 µM.
For `CS(=O)(=O)C1=NSC2=NC(=O)/C(=C\c3cccn3-c3ccc(Cl)c(Cl)c3)C(=N)N21`, the IC50 was 42.1 µM.
`Cc1ccc(-n2cccc2/C=C2/C(=N)N3C(=NC2=O)SN=C3S(C)(=O)=O)cc1` was tested, and the IC50 was 35.1 µM.
Compound `Cc1c2c(=O)n(-c3nc4ccccc4s3)nc-2cc(O)n1Cc1ccncc1` has an IC50 of 4.4 µM.

Source: PubChem BioAssay AID504352 (Southern Research Specialized Biocontainment Screening …, 2011)
